From US6541621B1, “Hypoxia inducible promoter” (Purdue University Research Foundation, priority 1997, dated 2003) come the findings set out here.

“Also recorded” adds a separate entry of the source.

Series [1] relates to rice suspension cells. The series can be described thus: GUS activity of promoter-uidA construct shot into rice suspension cells. The series is classed as cell-based. The settings on record: 2.38 kb region fused to the uidA gene.
For series [2], the system named is Alcohol dehydrogenase (Adh) gene. The series can be described thus: Northern blot of total RNA from suspension cells with or without cycloheximide, maize Adh probe. The series is classed as cell-based, rice. The conditions noted are these: for Adh transcripts: cycloheximide in the presence of O2, suspension cells. As to the method:
Two-week-old uniform seedlings of rice (IR54 variety) were transferred to two liter flasks and subjected to anaerobic conditions. Seedlings were submerged in distilled water through which nitrogen gas was continuously bubbled. The anaerobic treatment was conducted in the dark at 25° C. Control seedlings were maintained in the dark at 25° C. Tissues were harvested and immersed in liquid nitrogen. Extraction of RNA was carried out according to the procedure of Logmann et al. (Anal Biochem 163: 16-20, 1987) with modifications. The frozen tissue (2 gm) was ground in liquid nitrogen in an autoclaved mortar and pestle, and transferred to autoclaved plastic centrifuge tubes. Extraction buffer (4M guanidine hydrochloride, 20 mM MES, 20 mM EDTA, 4 ml/g tissue) was added to each tube. After vigorous shaking and complete mixing the suspension was extracted once with phenol:chloroform:isoamyl alcohol (25:24:1) and centrifuged for 45 minutes at room temperature at 10,000 rpm in a Beckman centrifuge using JA-20 rotor. Then 0.2 volumes of 1 M acetic acid [diethyl pyrocarbonate (DEPC) -treated] were added to the supernatant to acidify the contents, and the RNA was precipitated by adding 0.7 volumes of ethanol after 1 hour incubation at −80° C. following centrifugation at 10,000 rpm for 10 minutes. The RNA pellet was subsequently dissolved in DEPC-treated water and reprecipitated using ⅓ volume of 8 M LiCl (overnight at 4° C.). The RNA sample was subsequently washed with 80% ethanol and dissolved in DEPC-water after drying, and quantified spectrophotometrically. Suspension cultures of Radon variety were also treated in the same way under anaerobic conditions. Cycloheximide was added at a final concentration of 100 μM, and anaerobic conditions were applied for various time periods after 30 minutes pretreatment. RNA was isolated using the same procedure described above.
Ten μg of total RNA isolated from suspension cells (Radon variety) was loaded in each lane and was resolved in 1.2% formaldehyde-agarose gel according to standard procedures. […]

For series [3], the system named is rice suspension cells. The series can be described thus: Protein synthesis in rice suspension cells. The series is classed as cell-based. The conditions noted are these: cycloheximide at 20 to 300 μM.
For another series, the system named is pdc genes. The series can be described thus: Northern blot of total RNA from suspension cells under anaerobic conditions with or without cycloheximide, common pdc probe. The conditions noted are these: 100 μM cycloheximide, suspension cells (Radon variety). The series is classed as cell-based, rice. As to the method: Two-week-old uniform seedlings of rice (IR54 variety) were transferred to two liter flasks and subjected to anaerobic conditions. Seedlings were submerged in distilled water through which nitrogen gas was continuously bubbled. The anaerobic treatment was conducted in the dark at 25° C. Control seedlings were maintained in the dark at 25° C. Tissues were harvested and immersed in liquid nitrogen. Extraction of RNA was carried out according to the procedure of Logmann et al. (Anal Biochem 163: 16-20, 1987) with modifications. The frozen tissue (2 gm) was ground in liquid nitrogen in an autoclaved mortar and pestle, and transferred to autoclaved plastic centrifuge tubes. Extraction buffer (4M guanidine hydrochloride, 20 mM MES, 20 mM EDTA, 4 ml/g tissue) was added to each tube. After vigorous shaking and complete mixing the suspension was extracted once with phenol:chloroform:isoamyl alcohol (25:24:1) and centrifuged for 45 minutes at room temperature at 10,000 rpm in a Beckman centrifuge using JA-20 rotor. […] The RNA sample was subsequently washed with 80% ethanol and dissolved in DEPC-water after drying, and quantified spectrophotometrically. […]

For the molecule “2.38 kb region: about 2.38 kb 5' upstream region of the rice pdc2 gene (hypoxia inducible promoter), fused to the uidA gene”, the GUS activity result in the series on rice suspension cells [1] was “showed GUS activity”.

In the case of `C[C@@H]1C[C@@H]([C@H](O)CC2CC(=O)NC(=O)C2)C(=O)[C@@H](C)C1` [cycloheximide], the “induction of Adh gene” value in series [2] (100 μM cycloheximide, anaerobic conditions, suspension cells) is on record as “down-regulated; also recorded: reduced induction”. The Adh transcripts entry in series [2] was “induced Adh transcripts”; in series [2] (listed as Cycloheximide), “induced Adh messages”. The protein synthesis entry in the series on rice suspension cells [3] is “reduce protein synthesis”. The “induction of pdc genes” value with pdc genes is “reduce the induction of pdc genes; also recorded: reduced induction”.
